In test [1] the target is T1, human Adenosine A2a receptor (Homo sapiens, UniProt P29274).
T1 construct: expressed in transfected cells; host or cells: CHO cell membranes
Briefly: Adenosine receptor TR-FRET binding assay (CA200645 displacement), A2a. The settings on record: 100 nM CA200645, CHO cell membranes, 2 hours at room temperature. (In general: TR-FRET usually uses a lanthanide donor and a delayed reading to cut background.)

Test [2] addresses T2, human Adenosine A2b receptor (Homo sapiens, UniProt P29275).
T2 construct: expressed in transfected cells; host or cells: CHO cell membranes
T2 sequence (P29275 1-332): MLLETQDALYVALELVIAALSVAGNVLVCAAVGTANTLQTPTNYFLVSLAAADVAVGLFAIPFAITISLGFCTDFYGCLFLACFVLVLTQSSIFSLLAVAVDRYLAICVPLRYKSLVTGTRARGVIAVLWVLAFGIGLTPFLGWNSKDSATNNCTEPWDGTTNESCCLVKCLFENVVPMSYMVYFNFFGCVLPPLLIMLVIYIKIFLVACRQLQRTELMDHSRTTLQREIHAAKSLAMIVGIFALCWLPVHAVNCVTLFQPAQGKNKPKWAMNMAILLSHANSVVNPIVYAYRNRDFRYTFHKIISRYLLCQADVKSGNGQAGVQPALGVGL
In words: Adenosine receptor TR-FRET binding assay (CA200645 displacement), A2b. The settings on record: 30 nM CA200645, CHO cell membranes, 2 hours at room temperature.

The next test relates to human PBMCs. In words: CD3/CD28 stimulated IL-2 release NECA reversal assay in human PBMCs.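 Further: dose-response as % inhibition where 100% equals no-NECA control wells with CD3/CD28.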 Type of test: cell-based. The following applies: PBMC, CD3/CD28 antibody stimulated, 1 uM NECA, 24 hours, IL-2 in culture supernatant. On the procedure: Blood is drawn from healthy volunteers using sodium citrate as the anticoagulant (0.3% final concentration). After centrifugation of the blood over Histopaque-1077, PBMCs are collected from the Histopaque/plasma interface and washed twice in PBS (300 g for 10 mins at room temp). Cells are plated at 50,000 cells/well in 150 μl RPMI/10% FCS in 96-well cell culture plates that have been precoated with 1 ug/ml CD3 antibody. 50 μl diluted compound mix is added to the cells, to obtain final concentrations of 1 ug/ml CD28 antibody, 1 uM NECA and 0.003-10 μM adenosine receptor antagonist. Assay plates are incubated for 24 hours at 37° C. in a humidified incubator. Culture supernatant is tested for IL-2 levels using the human IL-2 Tissue Culture Kit (Meso Scale Discovery).

Test [3] has as its target T3, human Adenosine A1 receptor (Homo sapiens, UniProt P30542).
T3 sequence (P30542 1-326): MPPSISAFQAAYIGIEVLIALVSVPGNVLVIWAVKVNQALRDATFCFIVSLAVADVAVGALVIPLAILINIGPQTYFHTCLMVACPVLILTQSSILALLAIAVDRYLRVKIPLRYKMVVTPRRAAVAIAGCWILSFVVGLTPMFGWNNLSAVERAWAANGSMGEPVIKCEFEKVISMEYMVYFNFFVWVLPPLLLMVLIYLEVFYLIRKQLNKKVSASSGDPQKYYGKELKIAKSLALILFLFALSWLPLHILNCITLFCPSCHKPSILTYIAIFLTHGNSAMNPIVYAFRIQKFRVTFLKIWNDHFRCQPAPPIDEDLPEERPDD
Briefly: Adenosine receptor TR-FRET binding assay (CA200645 displacement), A1.

Test [4] has as its target T4, human Adenosine A3 receptor (Homo sapiens, UniProt P0DMS8).
T4 sequence (P0DMS8 1-318): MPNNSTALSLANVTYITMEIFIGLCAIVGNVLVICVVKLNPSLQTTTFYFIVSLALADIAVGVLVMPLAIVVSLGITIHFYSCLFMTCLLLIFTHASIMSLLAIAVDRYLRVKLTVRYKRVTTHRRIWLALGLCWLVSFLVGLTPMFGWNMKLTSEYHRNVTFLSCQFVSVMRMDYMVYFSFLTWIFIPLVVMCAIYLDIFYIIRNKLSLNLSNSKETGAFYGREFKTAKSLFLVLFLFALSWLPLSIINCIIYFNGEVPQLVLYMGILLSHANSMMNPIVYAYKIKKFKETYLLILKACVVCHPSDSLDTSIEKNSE
Briefly: Adenosine receptor TR-FRET binding assay (CA200645 displacement), A3.

Test [5] concerns CD8+ T cells in human whole blood. Briefly: Measurement of pCREB in CD8+ T cells in human whole blood. The test is classed as cell-based. The settings on record: T-cell, 1 h; heparinised human whole blood, rolipram, 3 μM NECA, 60 min, phospho-CREB in CD8+ T cells by FACS. Here is the method:
Heparinised human whole blood was pre-incubated at 37° C. with serial dilutions of A2a antagonists for 20 min. and the phosphodiesterase inhibitor rolipram to amplify the pCREB response. The adenosine receptor agonist NECA is then added at a final concentration of 3 μM and following a 60 min incubation the blood is fixed and red blood cells lysed. White blood cells are isolated, permeabilized and stained with directly conjugated fluorescent antibodies to phospho-CREB (Alexa Fluor 488) and CD8 (Alexa Fluor 647) and the level of phospho-CREB in CD8+ T cells is measured by FACS using a BD Accuri C6 Flow Cytometer.
A general note: Flow cytometry measures light scatter and fluorescence of single cells or particles in a stream.

T1 sequence (P29274 whole entry): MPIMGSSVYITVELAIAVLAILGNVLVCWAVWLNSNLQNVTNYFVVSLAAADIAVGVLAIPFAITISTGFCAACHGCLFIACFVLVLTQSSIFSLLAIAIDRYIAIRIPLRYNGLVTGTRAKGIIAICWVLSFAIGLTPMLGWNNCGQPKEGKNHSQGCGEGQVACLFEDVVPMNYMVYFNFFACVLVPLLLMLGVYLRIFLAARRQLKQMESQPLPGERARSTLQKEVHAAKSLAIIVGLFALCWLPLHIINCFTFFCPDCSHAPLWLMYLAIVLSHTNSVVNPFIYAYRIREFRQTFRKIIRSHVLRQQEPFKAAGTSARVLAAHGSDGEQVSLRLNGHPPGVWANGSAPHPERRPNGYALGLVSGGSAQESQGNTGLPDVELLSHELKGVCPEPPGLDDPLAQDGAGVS

Usually Ki stands for the equilibrium dissociation constant of an inhibitor or competing ligand from its target. A high value points to lower affinity. What is called IC50 is the concentration at which inhibition is half-maximal. As for `Cc1cc(-c2c(-c3cccc(C#N)c3)nn3ccc(C(=O)NC4COC4)nc23)cc(Cl)n1` [Example 5.5], the Ki in test [1] was 1.7 nM; in test [2], 55 nM; in test [3], 200 nM; in test [4] it was over 1000 nM. For the same compound, the half-maximal inhibitory concentration (IC50) with human PBMCs amounted to 21 nM.
In the case of `COCC(C)(C#N)NC(=O)c1ccn2nc(-c3cccc(C#N)c3)c(-c3cc(C)nc(Cl)c3)c2n1` (stereo not shown) [Example 6.11, 3-(2-Chloro-6-methyl-4-pyridyl)-N-(1-cyano-2-methoxy-1-methyl-ethyl)-2-(3-cyanophenyl)pyrazolo[1,5-a]pyrimidine-5-carboxamide], the Ki came out at 0.1 nM in test [1], 3 nM in test [2], 32 nM in test [3] and 379 nM in test [4]. For the same compound, in test [5], the IC50 was determined as 20 nM.
Turning to `CC(C)(C)OC(=O)N1CCO[C@@H](CNc2ccn3nc(-c4ccco4)c(C#N)c3n2)C1` [Example 37.1], the inhibitory constant (Ki) is 13.3 nM in test [1], 46 nM in test [2], 45 nM in test [3] and 2090 nM in test [4]. Also, the IC50 in the test on human PBMCs worked out at 477 nM.
On the same counts, the results for `Brc1c(-c2ccco2)nn2ccc(NCc3ccccc3)nc12` [Example 44, N-Benzyl-3-bromo-2-(2-furyl)pyrazolo[1,5-a]pyrimidin-5-amine] are 3.4 nM, 2850 nM, 141 nM, 25 nM and 501 nM.
On the same counts, the results for `NC(=O)c1c(-c2ccco2)nn2ccc(NCc3ccccc3)nc12` [Example 46, 5-(Benzylamino)-2-(2-furyl)pyrazolo[1,5-a]pyrimidine-3-carboxamide] are 2.7 nM, 257 nM, 146 nM, 1270 nM and 60 nM.
On the same counts, the results for `O=Cc1c(-c2ccco2)nn2ccc(NCc3ccccc3)nc12` [Example 47, 5-(Benzylamino)-2-(2-furyl)pyrazolo[1,5-a]pyrimidine-3-carbaldehyde] are 5.2 nM, 483 nM, 174 nM, 510 nM and 140 nM.
`c1ccc(CNc2ccn3nc(-c4ccco4)cc3n2)cc1` [Example 48, N-Benzyl-2-(2-furyl)pyrazolo[1,5-a]pyrimidin-5-amine]: the Ki in test [1] came to 16.6 nM; in test [2], 1170 nM; in test [3], 137 nM; in test [4], 41 nM. In addition, the half-inhibitory concentration (IC50) in the test on human PBMCs came out at 1890 nM.
On the same counts, the results for `Cc1cccnc1CN1CCN(c2ccn3nc(-c4ccco4)c(C#N)c3n2)CC1` [Example 51, 2-(2-Furyl)-5-[4-[(3-methyl-2-pyridyl)methyl]piperazin-1-yl]pyrazolo[1,5-a]pyrimidine-3-carbonitrile] are 24.1 nM, 2550 nM, 125 nM, 2120 nM and 73 nM.
With `N#Cc1c(-c2ccco2)nn2ccc(N3CCN(Cc4c(F)cc(F)cc4F)CC3)nc12` [Example 51.1, 2-(2-Furyl)-5-[4-[(2,4,6-trifluorophenyl)methyl]piperazin-1-yl]pyrazolo [1,5-a]pyrimidine-3-carbonitrile], the inhibition constant (Ki) in test [1] was 26.5 nM; in test [2], 1420 nM; in test [3] it was 322 nM; in test [4], over 1000 nM. In addition, the half-maximal inhibitory concentration (IC50) in the test with human PBMCs was determined as 16 nM.
On the same counts, the results for `Cc1ccc(-c2nn3ccc(NCc4ccccc4)nc3c2C#N)o1` [Example 64, 5-(benzylamino)-2-(5-methyl-2-furyl)pyrazolo[1,5-a]pyrimidine-3-carbonitrile] are 7.5 nM, 508 nM, 16 nM, 41 nM and 146 nM.
On the same counts, the results for `Fc1cccc(-c2cc3nc(NCc4ccccc4)ccn3n2)c1` [Example 66, N-benzyl-2-(3-fluorophenyl)pyrazolo[1,5-a]pyrimidin-5-amine] are 44.7 nM, 384 nM, 59 nM, over 1000 nM and 869 nM.
Turning to `N#Cc1c(-c2cccc(F)c2)nn2ccc(NCc3ccccc3)nc12` [Example 70, 5-(Benzylamino)-2-(3-fluorophenyl)pyrazolo[1,5-a]pyrimidine-3-carbonitrile], the Ki was 2.2 nM in test [1], 181 nM in test [2] and 2 nM in test [3]. For the same compound, the IC50 in the test on human PBMCs worked out at 177 nM.
As for `N#Cc1c(-c2cccc(F)c2)nn2ccc(N)nc12` [Example 72, 5-Amino-2-(3-fluorophenyl)pyrazolo[1,5-a]pyrimidine-3-carbonitrile], the inhibition constant Ki in test [1] turned out to be 30.9 nM; in test [2], 116 nM; in test [3], 0.3 nM; in test [4], 92 nM. Further, in the test with human PBMCs, the half-inhibitory concentration (IC50) worked out at 565 nM.
As to `Cc1cc(-c2c(-c3cccc(C#N)c3)nn3ccc(C(=O)NC(C)(C)C)nc23)cc(N)n1` [Example 91, 3-(2-Amino-6-methyl-4-pyridyl)-N-tert-butyl-2-(3-cyanophenyl)pyrazolo [1,5-a]pyrimidine-5-carboxamide], the inhibition constant (Ki) stood at 0.2 nM in test [1], 71 nM in test [2], 102 nM in test [3] and 1040 nM in test [4]. This compound displayed an IC50 in test [5] of 340 nM.
With `Cc1cc(-c2c(-c3cccc(C#N)c3)nn3ccc(C(=O)N[C@H](C)C(C)(C)O)nc23)cc(C)n1` [Example 92.10], the inhibition constant Ki is 0.5 nM in test [1], 117 nM in test [2], 591 nM in test [3] and over 1000 nM in test [4]. Also, the IC50 in test [5] stood at 150 nM.
On the same counts, the results for `Cc1cc(-c2c(-c3cccc(C#N)c3)nn3ccc(C(=O)NOCC(C)(C)O)nc23)cc(C)n1` [Example 92.11] are 1.5 nM, 21 nM, 217 nM, over 1000 nM and 2100 nM.
In the case of `Cc1cc(-c2c(-c3cccc(C#N)c3)nn3ccc(C(=O)N[C@@H]4COC[C@]4(C)O)nc23)cc(C)n1` [Example 92.12], the Ki was 0.8 nM in test [1], 44 nM in test [2], 274 nM in test [3] and over 1000 nM in test [4]. Moreover, in test [5], 150 nM corresponded to half-maximal inhibition (IC50).
On the same counts, the results for `Cc1cc(-c2c(-c3cccc(C#N)c3)nn3ccc(C(=O)N[C@@H]4COC[C@@]4(C)O)nc23)cc(C)n1` [Example 92.13] are 1 nM, 101 nM, 282 nM, over 1000 nM and 100 nM.
In the case of `Cc1cc(-c2c(-c3cccc(C#N)c3)nn3ccc(C(=O)NCC4CCCN(C)C4=O)nc23)cc(C)n1` (stereo not shown) [Example 92.14], the inhibitory constant (Ki) in test [1] is 0.4 nM; in test [2], 10 nM; in test [3], 79 nM; in test [4], over 1000 nM. This compound gave an IC50 in test [5] of 60 nM.

Source of the values: patent publication US20230203041A1, “ANTAGONISTS OF THE ADENOSINE A2A RECEPTOR” (AdoRx Therapeutics Limited, priority 2020, published 2023).
